Measurements from ChEMBL document CHEMBL1126401, “New potent enkephalin analogs containing trifluoromethylamino acid residues” (Bioorg Med Chem Lett, 1992).
*1 amine or outer side, *2 acyl side, *3 side chain or, on linkers, in order; H or OH if unused. Where a SMILES comes first, the peptide text is derived from it. [ ]: non-standard residue; d: D form. Nva(5,5,5-F3) = N[C@@H](CCC(F)(F)F)C(=O)O; X1 = O=C([C@@H](CCC(F)(F)F)N[*:1])[*:2]; X2 = O=C([C@H](CCCC(F)(F)F)N[*:1])[*:2]; NMeF = CN[C@@H](Cc1ccccc1)C(=O)O

Columns and labels:
Mus musculus = test: In vivo analgesic activity of fluoro-enkephalin analog was determined against the compound at 10E-9 M/mouse; i.c.v.; assay type: functional
[1] = target: Kappa-type opioid receptor (Cavia porcellus, UniProt P41144); test: Compound was evaluated for its binding affinity against enkephalin kappa receptor using [3H]U-69593 as ligand in guinea pig cerebrum in vitro
Sequence of Kappa-type opioid receptor (P41144 whole entry): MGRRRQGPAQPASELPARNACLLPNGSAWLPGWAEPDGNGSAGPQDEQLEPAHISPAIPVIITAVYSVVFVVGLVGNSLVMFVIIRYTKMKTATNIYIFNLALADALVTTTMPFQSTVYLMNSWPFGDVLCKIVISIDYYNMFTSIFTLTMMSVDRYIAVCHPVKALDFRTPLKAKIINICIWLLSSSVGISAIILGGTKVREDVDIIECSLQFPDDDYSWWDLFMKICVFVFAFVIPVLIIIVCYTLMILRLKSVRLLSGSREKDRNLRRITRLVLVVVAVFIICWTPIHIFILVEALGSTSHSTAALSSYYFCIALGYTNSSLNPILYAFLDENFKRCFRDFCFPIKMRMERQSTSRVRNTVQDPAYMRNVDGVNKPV

[2] = target: Delta-type opioid receptor (Rattus norvegicus, UniProt P33533); test: Compound was evaluated for its binding affinity against enkephalin delta receptor using [3H]DPDPE as ligand in rat cerebrum in vitro
Sequence of Delta-type opioid receptor (P33533 whole entry): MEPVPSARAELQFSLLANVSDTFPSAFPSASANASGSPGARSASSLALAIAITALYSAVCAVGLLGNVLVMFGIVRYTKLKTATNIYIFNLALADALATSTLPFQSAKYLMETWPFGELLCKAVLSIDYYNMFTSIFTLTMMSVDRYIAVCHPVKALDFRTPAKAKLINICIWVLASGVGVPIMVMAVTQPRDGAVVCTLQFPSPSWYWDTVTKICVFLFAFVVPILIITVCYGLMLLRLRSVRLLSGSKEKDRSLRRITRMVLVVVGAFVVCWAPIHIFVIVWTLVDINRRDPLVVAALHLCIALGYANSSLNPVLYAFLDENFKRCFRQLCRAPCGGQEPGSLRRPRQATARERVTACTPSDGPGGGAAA

Mu-type opioid receptor = Mu-type opioid receptor (Rattus norvegicus, UniProt P33535); test: Compound was evaluated for its binding affinity against enkephalin mu receptor using [3H]PL-017 as ligand in rat cerebrum in vitro
Sequence of Mu-type opioid receptor (P33535 whole entry): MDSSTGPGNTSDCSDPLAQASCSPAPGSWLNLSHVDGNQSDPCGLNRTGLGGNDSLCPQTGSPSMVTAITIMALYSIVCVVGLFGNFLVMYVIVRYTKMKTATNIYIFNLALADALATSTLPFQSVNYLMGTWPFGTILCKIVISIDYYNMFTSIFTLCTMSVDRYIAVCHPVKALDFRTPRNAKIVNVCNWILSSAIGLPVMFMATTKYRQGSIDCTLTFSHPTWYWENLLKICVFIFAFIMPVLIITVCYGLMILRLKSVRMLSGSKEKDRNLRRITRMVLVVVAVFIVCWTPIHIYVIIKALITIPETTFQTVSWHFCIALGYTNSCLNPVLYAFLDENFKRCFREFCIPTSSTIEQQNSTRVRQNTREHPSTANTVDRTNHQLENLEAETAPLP

| SMILES | ED50 (Mus musculus) | other results |
| --- | --- | --- |
| CSCC[C@H](NC(=O)[C@H](Cc1ccccc1)NC(=O)CNC(=O)CNC(=O)[C@@H](N)Cc1ccc(O)cc1)C(=O)O | 7e-07 M mouse-1 |  |
| CCC[C@@H](NC(=O)[C@@H](N)Cc1ccc(O)cc1)C(=O)NCC(=O)N[C@@H](Cc1ccccc1)C(=O)N[C@@H](CCSC)C(N)=O | 4e-11 M mouse-1 |  |
| CSCC[C@H](NC(=O)[C@H](Cc1ccccc1)NC(=O)[C@H](CCC(F)(F)F)NC(=O)CNC(=O)[C@@H](N)Cc1ccc(O)cc1)C(N)=O (H-YG[Nva(5,5,5-F3)]FM-NH2) | 2.2e-08 M mouse-1 |  |
| CSCC[C@H](NC(=O)[C@H](Cc1ccccc1)NC(=O)[C@H](CCC(F)(F)F)NC(=O)CNC(=O)[C@@H](N)Cc1ccc(O)cc1)C(=O)O (H-YG[Nva(5,5,5-F3)]FM-OH) | 1.4e-07 M mouse-1 |  |
| CSCC[C@H](NC(=O)[C@H](Cc1ccccc1)NC(=O)[C@@H](CCC(F)(F)F)NC(=O)CNC(=O)[C@@H](N)Cc1ccc(O)cc1)C(N)=O (H-YG[X1]FM-NH2) | 1.2e-08 M mouse-1 |  |
| CSCC[C@H](NC(=O)[C@H](Cc1ccccc1)NC(=O)CNC(=O)[C@H](CCC(F)(F)F)NC(=O)[C@@H](N)Cc1ccc(O)cc1)C(N)=O (H-Y[Nva(5,5,5-F3)]GFM-NH2) | 7e-12 M mouse-1 | IC50 [1]: 400 nM; IC50 [2]: 2 nM; IC50 (Mu-type opioid receptor): 0.5 nM |
| CSCC[C@H](NC(=O)[C@H](Cc1ccccc1)N(C)C(=O)CNC(=O)[C@H](CCC(F)(F)F)NC(=O)[C@@H](N)Cc1ccc(O)cc1)C(N)=O (H-Y[Nva(5,5,5-F3)]G[NMeF]M-NH2) | 2e-12 M mouse-1 |  |
| CSCC[C@H](NC(=O)[C@H](Cc1ccccc1)NC(=O)CNC(=O)[C@@H](CCC(F)(F)F)NC(=O)[C@@H](N)Cc1ccc(O)cc1)C(N)=O (H-Y[X1]GFM-NH2) | 2.5e-08 M mouse-1 |  |
| CSCC[C@H](NC(=O)[C@H](Cc1ccccc1)NC(=O)CNC(=O)[C@@H](CCC(F)(F)F)NC(=O)[C@@H](N)Cc1ccc(O)cc1)C(=O)O (H-Y[X1]GFM-OH) | 1.2e-07 M mouse-1 |  |
| CSCC[C@H](NC(=O)[C@H](Cc1ccccc1)NC(=O)CNC(=O)[C@H](CCCC(F)(F)F)NC(=O)[C@@H](N)Cc1ccc(O)cc1)C(N)=O (H-Y[X2]GFM-NH2) | 7e-11 M mouse-1 |  |
| CN1CC[C@]2(C)CC(Cc3ccc(O)cc32)C1 (single isomer, unassigned) [EPTAZOCINE] | 5e-11 M mouse-1 |  |
| CN1CC[C@]23c4c5ccc(O)c4O[C@H]2[C@@H](O)C=C[C@H]3[C@H]1C5.Cl [MORPHINE HYDROCHLORIDE] | 7e-11 M mouse-1 |  |
